Reference: patent US20250101028A1, “HETEROCYCLIC COMPOUNDS, COMPOSITIONS THEREOF, AND METHODS OF TREATMENT THEREWITH” (BeiGene, Ltd., priority 2022, published 2025)

biological target: T1, GST-tagged GDP-loaded KRAS G12V (amino acids 1-169) (Homo sapiens, UniProt P01116, G12V); experiment: KRAS G12V probe displacement assay (TR-FRET); format: binding; details: displacement of biotinylated probe 2 from GDP-loaded KRAS G12V
T1 construct: GST-tagged GDP-loaded KRAS G12V (amino acids 1-169); made in house; host or cells: E. coli
In short: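 GST-tagged GDP-loaded KRAS 1-169 (WT 3 nM; G12V 2 nM final) preincubated 1 h at 24 °C with serially diluted compound in HEPES pH 7.5 buffer, then biotinylated probe added (probe 1 60 nM for WT; probe 2 2.5 nM for G12V), 1 h. Anti-GST-Tb/streptavidin-XL665 TR-FRET 665/620 ratio; IC50 by four-parameter fit.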

T1 sequence (P01116 1-169 isoform P01116-2 G12V): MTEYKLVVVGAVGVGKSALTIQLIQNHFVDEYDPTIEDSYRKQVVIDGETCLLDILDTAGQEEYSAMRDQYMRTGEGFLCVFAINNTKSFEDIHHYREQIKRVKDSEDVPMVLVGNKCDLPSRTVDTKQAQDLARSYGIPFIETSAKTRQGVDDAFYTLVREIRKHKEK

**Q.** `N#CCC1CCN(c2nc(OC[C@@]34CCCN3C[C@H](F)C4)nc3c(F)c(-c4ccc(F)c5sc(N)nc45)c(C(F)(F)F)cc23)C1` (stereo partly drawn) [Example 61, 2-(1-(7-(2-amino-7-fluorobenzo[d]thiazol-4-yl)-8-fluoro-2-(((2R,7aS)-2-fluorotetrahydro-1H-pyrrolizin-7a(5H)-yl)methoxy)-6-(trifluoromethyl)quinazolin-4-yl)pyrrolidin-3-yl)acetonitrile] was tested. Which IC50 did it give?
**A.** 14 nM

**Q.** `Nc1nc2c(-c3c(C(F)(F)F)cc4c(N5CC6CC5C6)nc(OC[C@@]56CCCN5C[C@H](F)C6)nc4c3F)ccc(F)c2s1` [Example 62, 4-(4-(2-azabicyclo[2.1.1]hexan-2-yl)-8-fluoro-2-(((2R,7aS)-2-fluorotetrahydro-1H-pyrrolizin-7a(5H)-yl)methoxy)-6-(trifluoromethyl)quinazolin-7-yl)-7-fluorobenzo[d]thiazol-2-amine] was tested. Which IC50 did it give?
**A.** 22 nM

**Q.** How did the IC50 turn out when `Nc1nc2c(-c3c(C(F)(F)F)cc4c(N5CC[C@@H](O)C5)nc(OC[C@@]56CCCN5C[C@H](F)C6)nc4c3F)ccc(F)c2s1` [Example 63, (3R)-1-(7-(2-amino-7-fluorobenzo[d]thiazol-4-yl)-8-fluoro-2-(((2R,7aS)-2-fluorotetrahydro-1H-pyrrolizin-7a(5H)-yl)methoxy)-6-(trifluoromethyl)quinazolin-4-yl)pyrrolidin-3-ol] was run?
**A.** 11 nM

**Q.** For `Nc1nc2c(-c3c(C(F)(F)F)cc4c(N5CC[C@H](O)C5)nc(OC[C@@]56CCCN5C[C@H](F)C6)nc4c3F)ccc(F)c2s1` [Example 64, (3S)-1-(7-(2-amino-7-fluorobenzo[d]thiazol-4-yl)-8-fluoro-2-(((2R,7aS)-2-fluorotetrahydro-1H-pyrrolizin-7a(5H)-yl)methoxy)-6-(trifluoromethyl)quinazolin-4-yl)pyrrolidin-3-ol], which IC50 is on record?
**A.** 4.3 nM

**Q.** For `Nc1nc2c(-c3c(C(F)(F)F)cc4c(N5CC[C@@H](CO)C5)nc(OC[C@@]56CCCN5C[C@H](F)C6)nc4c3F)ccc(F)c2s1` [Example 65, ((3R)-1-(7-(2-amino-7-fluorobenzo[d]thiazol-4-yl)-8-fluoro-2-(((2R,7aS)-2-fluorotetrahydro-1H-pyrrolizin-7a(5H)-yl)methoxy)-6-(trifluoromethyl)quinazolin-4-yl)pyrrolidin-3-yl)methanol], which IC50 is on record?
**A.** 4.1 nM

**Q.** `Nc1nc2c(-c3c(C(F)(F)F)cc4c(N5CC[C@H](CO)C5)nc(OC[C@@]56CCCN5C[C@H](F)C6)nc4c3F)ccc(F)c2s1` [Example 66, ((3S)-1-(7-(2-amino-7-fluorobenzo[d]thiazol-4-yl)-8-fluoro-2-(((2R,7aS)-2-fluorotetrahydro-1H-pyrrolizin-7a(5H)-yl)methoxy)-6-(trifluoromethyl)quinazolin-4-yl)pyrrolidin-3-yl)methanol] was tested. Which IC50 did it give?
**A.** 7.7 nM

**Q.** Which IC50 does the source give for `Nc1nc2c(-c3c(C(F)(F)F)cc4c(N5CCCCC5)nc(OC[C@@]56CCCN5C[C@H](F)C6)nc4c3F)ccc(F)c2s1` [Example 67, 7-fluoro-4-(8-fluoro-2-(((2R,7aS)-2-fluorotetrahydro-1H-pyrrolizin-7a(5H)-yl)methoxy)-4-(piperidin-1-yl)-6-(trifluoromethyl)quinazolin-7-yl)benzo[d]thiazol-2-amine] here?
**A.** 30 nM

**Q.** For `CC1(C#N)CCN(c2nc(OC[C@@]34CCCN3C[C@H](F)C4)nc3c(F)c(-c4ccc(F)c5sc(N)nc45)c(C(F)(F)F)cc23)CC1` [Example 69, 1-(7-(2-amino-7-fluorobenzo[d]thiazol-4-yl)-8-fluoro-2-(((2R,7aS)-2-fluorotetrahydro-1H-pyrrolizin-7a(5H)-yl)methoxy)-6-(trifluoromethyl)quinazolin-4-yl)-4-methylpiperidine-4-carbonitrile], which IC50 is on record?
**A.** 17 nM

**Q.** For `N#CC1(F)CCN(c2nc(OC[C@@]34CCCN3C[C@H](F)C4)nc3c(F)c(-c4ccc(F)c5sc(N)nc45)c(C(F)(F)F)cc23)CC1` [Example 70, 1-(7-(2-amino-7-fluorobenzo[d]thiazol-4-yl)-8-fluoro-2-(((2R,7aS)-2-fluorotetrahydro-1H-pyrrolizin-7a(5H)-yl)methoxy)-6-(trifluoromethyl)quinazolin-4-yl)-4-fluoropiperidine-4-carbonitrile], which IC50 is on record?
**A.** 7.5 nM

**Q.** How did the IC50 turn out when `N#CCC1CCN(c2nc(OC[C@@]34CCCN3C[C@H](F)C4)nc3c(F)c(-c4ccc(F)c5sc(N)nc45)c(C(F)(F)F)cc23)CC1` [Example 71, 2-(1-(7-(2-amino-7-fluorobenzo[d]thiazol-4-yl)-8-fluoro-2-(((2R,7aS)-2-fluorotetrahydro-1H-pyrrolizin-7a(5H)-yl)methoxy)-6-(trifluoromethyl)quinazolin-4-yl)piperidin-4-yl)acetonitrile] was run?
**A.** 10 nM

**Q.** Which IC50 does the source give for `N#CC1CCN(c2nc(OC[C@@]34CCCN3C[C@H](F)C4)nc3c(F)c(-c4ccc(F)c5sc(N)nc45)c(C(F)(F)F)cc23)CC1F` (stereo partly drawn) [Example 72, 1-(7-(2-amino-7-fluorobenzo[d]thiazol-4-yl)-8-fluoro-2-(((2R,7aS)-2-fluorotetrahydro-1H-pyrrolizin-7a(5H)-yl)methoxy)-6-(trifluoromethyl)quinazolin-4-yl)-3-fluoropiperidine-4-carbonitrile] here?
**A.** 2 nM

**Q.** With `CC1CN(c2nc(OC[C@@]34CCCN3C[C@H](F)C4)nc3c(F)c(-c4ccc(F)c5sc(N)nc45)c(C(F)(F)F)cc23)CCC1C#N` (stereo partly drawn) [Example 73, 1-(7-(2-amino-7-fluorobenzo[d]thiazol-4-yl)-8-fluoro-2-(((2R,7aS)-2-fluorotetrahydro-1H-pyrrolizin-7a(5H)-yl)methoxy)-6-(trifluoromethyl)quinazolin-4-yl)-3-methylpiperidine-4-carbonitrile] as the compound, how does the IC50 read?
**A.** 6.8 nM

**Q.** For `N#C[C@@H]1CCCN(c2nc(OC[C@@]34CCCN3C[C@H](F)C4)nc3c(F)c(-c4ccc(F)c5sc(N)nc45)c(C(F)(F)F)cc23)C1` [Example 76, (3R)-1-(7-(2-amino-7-fluorobenzo[d]thiazol-4-yl)-8-fluoro-2-(((2R,7aS)-2-fluorotetrahydro-1H-pyrrolizin-7a(5H)-yl)methoxy)-6-(trifluoromethyl)quinazolin-4-yl)piperidine-3-carbonitrile], which IC50 is on record?
**A.** 21 nM

**Q.** `N#C[C@H]1CCCN(c2nc(OC[C@@]34CCCN3C[C@H](F)C4)nc3c(F)c(-c4ccc(F)c5sc(N)nc45)c(C(F)(F)F)cc23)C1` [Example 77, (3S)-1-(7-(2-amino-7-fluorobenzo[d]thiazol-4-yl)-8-fluoro-2-(((2R,7aS)-2-fluorotetrahydro-1H-pyrrolizin-7a(5H)-yl)methoxy)-6-(trifluoromethyl)quinazolin-4-yl)piperidine-3-carbonitrile] was tested. Which IC50 did it give?
**A.** 17 nM

**Q.** For `Nc1nc2c(-c3c(C(F)(F)F)cc4c(N5CCC(O)CC5)nc(OC[C@@]56CCCN5C[C@H](F)C6)nc4c3F)ccc(F)c2s1` [Example 78, 1-(7-(2-amino-7-fluorobenzo[d]thiazol-4-yl)-8-fluoro-2-(((2R,7aS)-2-fluorotetrahydro-1H-pyrrolizin-7a(5H)-yl)methoxy)-6-(trifluoromethyl)quinazolin-4-yl)piperidin-4-ol], which IC50 is on record?
**A.** 3.3 nM

**Q.** Which IC50 does the source give for `C[C@]1(O)CCCN(c2nc(OC[C@@]34CCCN3C[C@H](F)C4)nc3c(F)c(-c4ccc(F)c5sc(N)nc45)c(C(F)(F)F)cc23)C1` [Example 79, (3S)-1-(7-(2-amino-7-fluorobenzo[d]thiazol-4-yl)-8-fluoro-2-(((2R,7aS)-2-fluorotetrahydro-1H-pyrrolizin-7a(5H)-yl)methoxy)-6-(trifluoromethyl)quinazolin-4-yl)-3-methylpiperidin-3-ol] here?
**A.** 28 nM
